# Assay results reported in publication PMC11231114 (EJNMMI Research, 2024).
# Where “and” joins values, the source holds several entries; their conditions need not be identical. Equal entries are not always repeated.
# Legend:
# [1] = Dynamic microPET/CT imaging
# Description: The scans were performed on a trimodal small animal scanner Albira Si PET/SPECT/CT Preclinical Imaging System (Bruker, Billerica, MA, USA) in a group of Wistar rats anesthetized with isoflurane (induction 4%, maintenance 1.5-2%).
# [2] = Blood activity clearance and pharmacokinetic parameters of radiolabelled compounds; assay type: in vivo; conditions: radiolabelled compound, rat
# Description: Approximately 0.2 mL/31.1 MBq of compound was administered i.v. At established time points after injection (15 min, 30 min, 1 h, 2 h, 4 h and 6 h), the animals were euthanized by cervical dislocation and dissected. Selected organs and tissues were weighed, and their radioactivity was measured using a NaI(Tl) crystal gamma counter. The results were adjusted for the radioactive decay of ^18F. The physiological distribution was calculated and expressed in terms of the percentage of administrated dose found in each of the selected organs (%ID) or per gram of tissues/organ (%ID/g) with suitable standards of the injected dose.
# For [^18F]SYN2 the initial fast decrease mainly represents the equilibrium between the intravascular and extravascular components, and the second slower phase represents the metabolism.
# [3] = Dosimetry: human absorbed dose extrapolated from rat biodistribution (OLINDA/EXM); conditions: human estimate extrapolated from rats
# Text: The pharmacokinetics data from ex vivo biodistribution studies in rats were extrapolated to humans using the simplest allometric scaling model to estimate an effective dose in mSv/MBq. The dose calculation was done using computer software for internal dose assessment OLINDA/EXM® (Version 1.1, copyright Vanderbilt University, 2007).
# This work estimated the human absorbed radiation dose based on a detailed description of activity organ distribution data for normal rats. […] Additionally, the obtained theoretical values for examined cardiotracers were compared with [^18F]flurpiridaz absorbed dose calculated in exercise stress subjects in humans (Table 6).
structure (smiles),measurement,setting,value
CN(C)c1ccc2cc3ccc(N(C)C)cc3[n+](CC[18F])c2c1 [[^18F]SYN2],"SUV in the myocardium, plateau",[1]; after 6 min,3.5
same,SUV in the liver,[1]; at 45 min,1.9
same,SUV in the myocardium at the beginning,[1]; dynamic microPET,4.0
same,SUVmax in the liver,[1]; dynamic microPET,2.9
same,"average standardized uptake value, myocardial uptake",[1]; dynamic microPET,3.8
same,AUCt,[2]; i.v.,421 ng·h/mL
same,Cl,[2]; i.v.,0.2 mL/min/kg
same,Cmax,[2]; i.v.,76.39 ng/mL
same,Tmax,[2]; i.v.,0 h
same,Vz,[2]; i.v.,1.43 L/kg
same,T½,[2]; calculated from Eq. (0.693 · VZ · AUC)/dose,79.9 h
same,"Absorbed dose per administrated activity, Adrenals",[3],8.06E-03 mSv/MBq
same,"Absorbed dose per administrated activity, Brain",[3],2.84E-03 mSv/MBq
same,"Absorbed dose per administrated activity, Breasts",[3],2.93E-03 mSv/MBq
same,"Absorbed dose per administrated activity, Gallbladder Wall",[3],8.01E-03 mSv/MBq
same,"Absorbed dose per administrated activity, Heart Wall",[3],0.0415 mSv/MBq and 0.042 mSv/MBq and 4.15E-02 mSv/MBq
same,"Absorbed dose per administrated activity, Kidneys",[3],0.0704 mSv/MBq and 0.070 mSv/MBq and 7.04E-02 mSv/MBq
same,"Absorbed dose per administrated activity, Liver",[3],1.17E-02 mSv/MBq
same,"Absorbed dose per administrated activity, Lower Large Intestine Wall",[3],1.18E-02 mSv/MBq
same,"Absorbed dose per administrated activity, Lungs",[3],2.16E-02 mSv/MBq
same,"Absorbed dose per administrated activity, Muscle",[3],1.03E-02 mSv/MBq
same,"Absorbed dose per administrated activity, Osteogenic Cells",[3],4.02E-03 mSv/MBq
same,"Absorbed dose per administrated activity, Ovaries",[3],7.10E-03 mSv/MBq
same,"Absorbed dose per administrated activity, Pancreas",[3],0.0285 mSv/MBq and 2.85E-02 mSv/MBq
same,"Absorbed dose per administrated activity, Red Marrow",[3],4.77E-03 mSv/MBq
same,"Absorbed dose per administrated activity, Skin",[3],2.65E-03 mSv/MBq
same,"Absorbed dose per administrated activity, Small Intestine",[3],1.84E-02 mSv/MBq
same,"Absorbed dose per administrated activity, Spleen",[3],2.13E-02 mSv/MBq
same,"Absorbed dose per administrated activity, Stomach Wall",[3],1.19E-02 mSv/MBq
same,"Absorbed dose per administrated activity, Testes",[3],4.97E-03 mSv/MBq
same,"Absorbed dose per administrated activity, Thymus",[3],5.48E-03 mSv/MBq
same,"Absorbed dose per administrated activity, Thyroid",[3],2.49E-02 mSv/MBq
same,"Absorbed dose per administrated activity, Total Body",[3],7.67E-03 mSv/MBq
same,"Absorbed dose per administrated activity, Upper Large Intestine Wall",[3],2.01E-02 mSv/MBq
same,"Absorbed dose per administrated activity, Urinary Bladder Wall",[3],5.29E-03 mSv/MBq
same,"Absorbed dose per administrated activity, Uterus",[3],6.27E-03 mSv/MBq
same,Effective Dose Equivalent,[3],1.71E-02 mSv/MBq
same,Effective dose,[3],0.0109 mSv/MBq and 1.09E-02 mSv/MBq
